Measurements taken from patent US11274124B2, “Tubulysin analogues as anticancer agents and payloads for antibody-drug conjugates and methods of treatment therewith” (William Marsh Rice University, priority 2017, dated 2022).
Where two headings read alike, the source gives them in different places.

Columns and labels:
[1] = test system: MES SA DX (MES SA cell line with marked multi-drug resistance); assay: In vitro cytotoxicity assay (CellTiter-Glo, 72 hours), MES SA DX; settings: Homo sapiens, MES-SA, 72 h
[2] = test system: MES SA (uterine sarcoma cell line); assay: In vitro cytotoxicity assay (CellTiter-Glo, 72 hours), MES SA; type: cell-based; settings: Homo sapiens, MES-SA, 72 h
[3] = test system: HEK 293T (human embryonic kidney cancer cell line); assay: In vitro cytotoxicity assay (CellTiter-Glo, 72 hours), HEK 293T; type: cell-based; settings: Homo sapiens, HEK-293T, 72 h
[4] = read-out: MES SA DX, IC50 Value in nM
[5] = read-out: MES SA, IC50 Value in nM
[6] = read-out: HEK 293T, IC50 Value in nM

Row | Structure (SMILES) | IC50 [1, 4] | IC50 [2, 5] | IC50 [3, 6] | IC50 ([1]; read-out: MES SA DX, IC50) | IC50 ([2]; read-out: MES SA, IC50) | IC50 ([3]; read-out: HEK 293T, IC50)
1 | CC(C)[C@@H](C[C@@H](O)c1nc(C(=O)N[C@@H](Cc2ccccc2)C[C@H](C)C(=O)O)cs1)N(C)C(=O)[C@H](CC(F)(F)F)NC(=O)[C@H]1CCCN1C [Tb84, (2S,4R)-4-[({2-[(1R,3R)-1-Hydroxy-4-methyl-3-{methyl[(2S)-4,4,4-trifluoro-2-({[(2R)-1-methyl-pyrrolidin-2-yl]carbonyl}amino)butanoyl]amino}pentyl]-1,3-thiazol-4-yl}carbonyl)amino]-2-meth-yl-5-phenylpentanoic acid] | > 1000 nM | > 1000 nM | > 1000 nM | – | – | –
2 | COC(=O)[C@@H](C)C[C@H](Cc1ccccc1)NC(=O)c1csc([C@@H](C[C@H](C(C)C)N(C)C(=O)[C@H](CC(F)(F)F)NC(=O)[C@H]2CCCCN2C)OC(C)=O)n1 [Tb81, Methyl (2S,4R)-4-[({2-[(1R,3R)-1-acetoxy-4-methyl-3-{methyl[(2S)-4,4,4-trifluoro-2-({[(2R)-1-meth-ylpiperidin-2-yl]carbonyl}amino)butanoyl]amino}pentyl]-1,3-thiazol-4-yl}carbonyl)amino]-2-methyl-5-phenylpentanoate] | > 1000 nM | 5.84 nM | 4.98 nM | – | – | –
3 | COC(=O)[C@@H](C)C[C@H](Cc1ccccc1)NC(=O)c1csc(CC[C@H](C(C)C)N(C)C(=O)[C@@H](NC(=O)[C@H]2CCCCN2C)C(C)C)n1 [PTb-D48] | > 1000 nM | > 1000 nM | > 1000 nM | – | – | –
4 | COC(=O)[C@H](CO)C[C@H](Cc1ccccc1)NC(=O)c1csc([C@@H](C[C@H](C(C)C)N(C)C(=O)[C@@H](NC(=O)[C@H]2CCCCN2C)C(C)C)OC(C)=O)n1 [Tb120, Methyl (2S,4R)-4-{2-[(1R,3R)-1-acetoxy-3-{(S)—N,3-dimethyl-2-[(R)-1-methylpiperidine-2-carboxamido]butanamido}-4-methylpentyl]thiazole-4-carboxamido}-2-(hydroxymethyl)-5-phenylpentanoate] | > 14 nM | 0.059 nM | 0.039 nM | > 14 nM | 0.059 nM | 0.039 nM
5 | COC(=O)C12C3C4C1C1C2C3C41NC(=O)c1csc([C@@H](C[C@H](C(C)C)N(C)C(=O)[C@@H](NC(=O)[C@H]2CCCCN2C)C2CC2)OC(C)=O)n1 (stereo partly drawn) [Tb99, Methyl 4-[({2-[(1R,3R)-1-acetoxy-3-{[(2S)-2-cyclopropyl-2-({[(2R)-1-methylpiperidin-2-yl]carbonyl}-amino)acetyl](methyl)amino}-4-methylpentyl]-1,3-thiazol-4-yl}carbonyl)amino]cubane-1-carboxylate] | > 1000 nM | > 1000 nM | > 1000 nM | – | – | –
6 | COC(=O)[C@@H](C)C[C@H](Cc1ccccc1)NC(=O)c1nc([C@@H](C[C@H](C(C)C)N(C)C(=O)[C@@H](NC(=O)[C@H]2CCCCN2)C(C)C)OC(C)=O)sc1C [Tb69, Methyl (2S,4R)-4-[({2-[(1R,3R)-1-acetoxy-4-methyl-3-{methyl[(2S)-3-methyl-2-{[(2R)-piperidin-2-ylcarbonyl]amino}butanoyl]amino}pentyl]-5-methyl-1,3-thiazol-4-yl}carbonyl)amino]-2-methyl-5-phenylpentanoate] | > 1000 nM | 30.8 nM | > 1000 nM | – | – | –
7 | COC(=O)[C@@H](C)C[C@H](Cc1ccccc1)NC(=O)c1csc([C@@H](C[C@H](C(C)C)N(C)C(=O)[C@H](CC(F)(F)F)NC(=O)[C@H]2CCCN2C)OC(C)=O)n1 [Tb82, Methyl (2S,4R)-4-[({2-[(1R,3R)-1-acetoxy-4-methyl-3-{methyl[(2S)-4,4,4-trifluoro-2-({[(2R)-1-methylpyrrolidin-2-yl]carbonyl}amino)butanoyl]amino}pentyl]-1,3-thiazol-4-yl}carbonyl)amino]-2-methyl-5-phenylpentanoate] | > 1000 nM | 47.5 nM | 51.6 nM | – | – | –
8 | COC(=O)[C@@H](CO)C[C@H](Cc1ccccc1)NC(=O)c1csc([C@@H](C[C@H](C(C)C)N(C)C(=O)[C@@H](NC(=O)[C@H]2CCCCN2C)C(C)C)OC(C)=O)n1 [Tb119, Methyl (2R,4R)-4-{2-[(1R,3R)-1-acetoxy-3-{(S)—N,3-dimethyl-2-[(R)-1-methylpiperidine-2-carboxamido]butanamido}-4-methylpentyl]thiazole-4-carboxamido}-2-(hydroxymethyl)-5-phenylpentanoate] | > 14 nM | 0.093 nM | 0.041 nM | > 14 nM | 0.093 nM | 0.041 nM
9 | CCCCN1CCCC[C@@H]1C(=O)N[C@H](C(=O)N(C)[C@H](C[C@@H](OC(C)=O)c1nc(C(=O)N[C@@H](Cc2ccccc2)CC(CO)C(=O)OC)cs1)C(C)C)[C@@H](C)CC (stereo partly drawn) [Tb56, Methyl (4R)-4-[({2-[(1R,3R)-1-acetoxy-3-{[(2S,3S)-2-({[(2R)-1-butylpiperidin-2-yl]carbonyl}amino)-3-methylpentanoyl](methyl)amino}-4-methylpentyl]-1,3-thiazol-4-yl}carbonyl)amino]-2-(hydroxy-methyl)-5-phenylpentanoate] | > 1000 nM | > 1000 nM | > 1000 nM | – | – | –
10 | CC(=O)O[C@H](C[C@H](C(C)C)N(C)C(=O)[C@H](C)NC(=O)[C@H]1CCCCN1C)c1nc(C(=O)N[C@@H](Cc2ccccc2)C[C@H](C)C(=O)O)cs1 [Tb91, (2S,4R)-4-[({2-[(1R,3R)-1-Acetoxy-4-methyl-3-{methyl[(2S)-2-({[(2R)-1-methylpiperidin-2-yl]car-bonyl}amino)propanoyl]amino}pentyl]-1,3-thiazol-4-yl}carbonyl)amino]-2-methyl-5-phenylpentanoic acid] | > 1000 nM | > 1000 nM | > 1000 nM | – | – | –
11 | CCOC(=O)[C@@H](C)C[C@H](Cc1ccccc1)NC(=O)c1csc([C@@H](C[C@H](C(C)C)N(C)C(=O)[C@@H](NC(=O)[C@H]2C[C@H](O)CCN2C)C(C)C)OC(C)=O)n1 [Tb76, Ethyl (2S,4R)-4-[({2-[(1R,3R)-1-acetoxy-3-{[(2S)-2-({[(2R,4R)-4-hydroxy-1-methylpiperidin-2-yl]-carbonyl}amino)-3-methylbutanoyl](methyl)amino}-4-methylpentyl]-1,3-thiazol-4-yl}carbonyl)-amino]-2-methyl-5-phenylpentanoate] | > 2500 nM | 4.88 nM | 1.37 nM | – | – | –
12 | COC(=O)C12CC(NC(=O)c3csc([C@@H](C[C@H](C(C)C)N(C)C(=O)[C@@H](NC(=O)[C@H]4CCCCN4C)C4CC4)OC(C)=O)n3)(C1)C2 [Tb100, Methyl 3-{[(2-{1-acetoxy-3-[(cyclopropyl{[(1-methylpiperidin-2-yl)carbonyl]amino}acetyl)(methyl)-amino]-4-methylpentyl}-1,3-thiazol-4-yl)carbonyl]amino}bicyclo[1.1.1]pentane-1-carboxylate] | > 1000 nM | 15.2 nM | 16.5 nM | – | – | –
13 | COC(=O)[C@@H](C)C[C@H](Cc1ccccc1)NC(=O)c1nc([C@@H](C[C@H](C(C)C)N(C)C(=O)[C@@H](NC(=O)[C@H]2C[C@H](O)CCN2C)C(C)C)OC(C)=O)sc1C(C)C [Tb74, Methyl (2S,4R)-4-[({2-[(1R,3R)-1-acetoxy-3-{[(2S)-2-({[(2R,4R)-4-hydroxy-1-methylpiperidin-2-yl]-carbonyl}amino)-3-methylbutanoyl](methyl)amino}-4-methylpentyl]-5-isopropyl-1,3-thiazol-4-yl}-carbonyl)amino]-2-methyl-5-phenylpentanoate] | > 400 nM | 5.32 nM | 2.46 nM | – | – | –
